Experimental findings from patent publication US20250206738A1, “WRN INHIBITORS” (Nimbus Wadjet, Inc., priority 2023, published 2025) are described below.

For assay [1], the target named is T1, human Werner helicase (WRN, Uniprot Q14191, amino acids 517-1235 with L1074F point mutation; WRN-BV08) (Homo sapiens, UniProt Q14191, L1074F).
T1 construct: Uniprot Q14191, amino acids 517-1235 with L1074F point mutation; 8xHis (C, cleaved yes); TEV cleavage site (ENLYFQG) (C, cleaved yes); made in house; host or cells: Sf9 insect cells (baculovirus, pFastBac)
Description: WRN (BV08) ADP-Glo assay. The format is biochemical. The note with it: WRN-BV08 (aa 517-1235, L1074F); read-out: ADP-Glo_hWRN_IC50. In a few lines: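 ADP formed by untagged WRN helicase fragment (aa 517-1235, L1074F; 0.15 nM final) on 0.1 nM DNA duplex with […], 60 min at 25 °C after 15 min compound preincubation, pH 7.5 Bicine buffer. Luminescent ADP-Glo readout; IC50 from 4-parameter fit of % inhibition.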
Background: In ADP-Glo the light output rises with the ADP produced.

Assay [2] has as its system p21 induction in HCT 116 cells. The assay is described as follows: p21 induction in cells (In-Cell Western, p21/GAPDH ratio). The format is cell-based. To be noted: Homo sapiens, HCT-116, 24 h, 24 h compound incubation, read-out: P21_EC50. On the procedure: Example 3: Method for Determining Effect on p21 Induction in Cells
The colon carcinoma cell line HCT 116 was obtained from ATCC and cultured in growth medium consisting of Mccoy's 5A Medium (Gibco 16600108) supplemented with 10% FBS (Transgene FS201-02) and 100 units/mL penicillin-streptomycin (Gibco 15140122) and maintained at 37° C. under 5% CO2. On the day of seeding, 2,000 cells in 30 μL of culture media were plated per well to Poly-D-Lysine 384 Well Black Clear Plates (Biocoat 356663) and incubated overnight at 37° C. under 5% CO2. The following day, compounds were serially diluted in DMSO for a total of 11 test concentrations. The typical starting concentration of compounds was 10 μM with 2-fold dilutions. Next, 150 nL of diluted compound was added in duplicate to the assay plate, using an Echo 655 (Labcyte). The plate was centrifuged at 500 RPM for 1 min and then incubated at 37° C. under 5% CO2 for 24 h. After 24h, medium was removed, and cells were fixed by adding 40 μL of 4% paraformaldehyde solution to each well and incubated for 20 min at room temperature. The plate was then washed 4 times with 100 μL per well of wash buffer (PBS with 0.1% Tween-20) using a microplate washer. Next, 30 μL of ice-cold methanol was added to each well and the plate was incubated at −20° C. for 10 min. The plate was washed 4 times with 100 μL per well of wash buffer by a microplate washer, then 30 μL per well of blocking buffer (Intercept PBS blocking buffer (LI-COR 927-70001) with 0.05% Tween-20) was added and the plate was incubated at room temperature with shaking for 2h. Next, to each test well, 20 μL of primary antibody solution (p21 Waf1/CIP (12D1) RabbitmAb (Cell Signaling Technologies 2947) diluted 1:1000 and GAPDH (D4C6R) Mouse mAb (Cell Signaling Technologies 97166) diluted 1:2000 in blocking buffer) was added and the plate was placed at 4° C., overnight. The following day, the plate was washed 5 times with 100 μL per well of wash buffer using a microplate washer for 5 min. 20 μL per well of secondary antibody (IRDye 680CW Goat anti-Mouse IgG (H+L) (LI-COR 926-68070) diluted 1: 2000 in Blocking Buffer and IRDye 800CW Goat anti-Rabbit IgG (H+L) (LI-COR 926-32211) diluted 1: 2000 in Blocking Buffer) was then added and the plate was stored for 2h in the dark at room temperature with shaking. The plate was then washed 4 times with 100 μL per well of wash buffer again using a microplate washer. Finally, the p21 signal and the GAPDH signal were quantified using a LI-COR Odyssey CLx Imager machine reading at 800 nm and 700 nm, respectively. Each plate contained DMSO control (low control) and an internal reference WRN inhibitor (high control) respectively. For quantitation, the 800 nm/700 nm ratio was calculated for each well to give fold p21 induction and then percent activation for each compound well was calculated as follows (100×(ratio cpd well−ratio low control)/(ratio high control−ratio low control)). EC50 values for each compound were generated after non-linear regression curve fitting using commercially available software.

Where only a bound is given, the exact number is not on record here.

T1 sequence (Q14191 with tags, fused parts or gaps L1074F): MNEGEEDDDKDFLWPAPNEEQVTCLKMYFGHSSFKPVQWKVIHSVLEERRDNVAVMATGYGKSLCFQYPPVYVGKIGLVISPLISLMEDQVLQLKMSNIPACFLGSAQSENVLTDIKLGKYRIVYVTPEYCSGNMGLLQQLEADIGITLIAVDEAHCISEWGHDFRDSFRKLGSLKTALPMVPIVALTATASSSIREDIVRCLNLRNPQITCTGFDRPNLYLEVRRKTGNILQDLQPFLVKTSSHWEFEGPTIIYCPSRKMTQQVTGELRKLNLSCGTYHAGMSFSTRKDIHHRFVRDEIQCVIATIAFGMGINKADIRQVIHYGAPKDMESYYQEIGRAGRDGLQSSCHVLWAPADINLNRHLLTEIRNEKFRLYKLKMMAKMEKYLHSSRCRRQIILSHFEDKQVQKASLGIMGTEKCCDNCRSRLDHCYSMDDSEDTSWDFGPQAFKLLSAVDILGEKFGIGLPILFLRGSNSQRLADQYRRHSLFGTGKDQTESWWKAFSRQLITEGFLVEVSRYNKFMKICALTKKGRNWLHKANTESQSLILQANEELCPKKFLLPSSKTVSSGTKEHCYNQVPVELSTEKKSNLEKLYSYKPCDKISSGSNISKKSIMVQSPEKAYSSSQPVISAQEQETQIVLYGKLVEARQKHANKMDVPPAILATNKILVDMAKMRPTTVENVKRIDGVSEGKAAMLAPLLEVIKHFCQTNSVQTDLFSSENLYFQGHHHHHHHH

Take `CCc1c(N2CCN(C(=O)c3cnn(C)c3)CC2)c(=O)n2nc(-c3ccnc(OC)c3)nc2n1CC(=O)NC1CC2(C1)CC2F` (centres unmarked) [I-247, 2-(5-ethyl-2-(2-methoxypyridin-4-yl)-6-(4-(1-methyl-1H-pyrazole-4-carbonyl)piperazin-1-yl)-7-oxo-[1,2,4]triazolo[1,5-a]pyrimidin-4(7H)-yl)-N-(1-fluorospiro[2.3]hexan-5-yl)acetamide]: in assay [1], the IC50 lay within 100 to 500 nM. The EC50 in assay [2] is over 5000 nM.
Turning to `CCc1c(N2CCN(C(=O)c3ncnc(C)c3O)[C@H]3CC[C@@H]32)c(=O)n2nc(C3=CCOCC3)nc2n1CC(=O)NC12CC(C3CC3)(C1)C2` [I-225, N-(3-cyclopropylbicyclo[1.1.1]pentan-1-yl)-2-(2-(3,6-dihydro-2H-pyran-4-yl)-5-ethyl-6-((1S,6S)-5-(5-hydroxy-6-methylpyrimidine-4-carbonyl)-2,5-diazabicyclo[4.2.0]octan-2-yl)-7-oxo-[1,2,4]triazolo[1,5-a]pyrimidin-4(7H)-yl)acetamide], in assay [1], the IC50 lay in the range of 5 to 50 nM. Besides, the EC50 in assay [2] is at most 500 nM.
On the same counts, the results for `CCc1c(N2CCN(C(=O)c3ncc4c(c3O)CCO4)CC2)c(=O)n2nc(C3=CCN(C(C)=O)CC3)nc2n1CC(=O)NC12CC(C(F)(F)F)(C1)C2` [I-11, 2-(2-(1-acetyl-1,2,3,6-tetrahydropyridin-4-yl)-5-ethyl-6-(4-(4-hydroxy-2,3-dihydrofuro[2,3-c]pyridine-5-carbonyl)piperazin-1-yl)-7-oxo-[1,2,4]triazolo[1,5-a]pyrimidin-4(7H)-yl)-N-(3-(trifluoromethyl)bicyclo[1.1.1]pentan-1-yl)acetamide] are 5 to 50 nM and 2000 to 5000 nM.
As for `CCc1c(N2CCN(C(=O)c3ncnc(C)c3O)[C@H]3CC[C@@H]32)c(=O)c2nc(N(C)C)cnc2n1CC(=O)NC1CC2(CCCC2)C1` [I-230, 2-(2-(dimethylamino)-6-ethyl-7-((1S,6S)-5-(5-hydroxy-6-methylpyrimidine-4-carbonyl)-2,5-diazabicyclo[4.2.0]octan-2-yl)-8-oxopyrido[2,3-b]pyrazin-5(8H)-yl)-N-(spiro[3.4]octan-2-yl)acetamide], in assay [1], the IC50 was 5 to 50 nM. For the same compound, in assay [2], the EC50 was over 5000 nM.
As for `CCc1c(N2CCN(C(=O)c3ncnc(C)c3O)CC2)c(=O)n2nc(C3=CCOCC3)nc2n1CC(=O)NC12CC(C(C)C)(C1)C2` [I-234, 2-(2-(3,6-dihydro-2H-pyran-4-yl)-5-ethyl-6-(4-(5-hydroxy-6-methylpyrimidine-4-carbonyl)piperazin-1-yl)-7-oxo-[1,2,4]triazolo[1,5-a]pyrimidin-4(7H)-yl)-N-(3-isopropylbicyclo[1.1.1]pentan-1-yl)acetamide], the IC50 in assay [1] lay in the range of 5 to 50 nM. Also, the EC50 in assay [2] is 500 to 2000 nM.
Take `CCc1c(N2CCN(C(=O)c3ncc4c(c3O)CCO4)CC2)c(=O)n2nc(C3=CCN(C(=O)COC)CC3)nc2n1CC(=O)NC12CC(C(F)(F)F)(C1)C2` [I-21, 2-(5-ethyl-6-(4-(4-hydroxy-2,3-dihydrofuro[2,3-c]pyridine-5-carbonyl)piperazin-1-yl)-2-(1-(2-methoxyacetyl)-1,2,3,6-tetrahydropyridin-4-yl)-7-oxo-[1,2,4]triazolo[1,5-a]pyrimidin-4(7H)-yl)-N-(3-(trifluoromethyl)bicyclo[1.1.1]pentan-1-yl)acetamide]: in assay [1], the IC50 is 5 to 50 nM. The EC50 in assay [2] lay within 2000 to 5000 nM.
The matching figures for `CCc1c(N2CCN(C(=O)c3c(OC)cccc3B(O)O)[C@H]3CC[C@@H]32)c(=O)c2nn(C3=CCOCC3)nc2n1CC(=O)NC12CC(C(C)C)(C1)C2` [I-204, (2-((1S,6S)-5-(2-(3,6-dihydro-2H-pyran-4-yl)-5-ethyl-4-(2-((3-isopropylbicyclo[1.1.1]pentan-1-yl)amino)-2-oxoethyl)-7-oxo-4,7-dihydro-2H-[1,2,3]triazolo[4,5-b]pyridin-6-yl)-2,5-diazabicyclo[4.2.0]octane-2-carbonyl)-3-methoxyphenyl)boronic acid]: 5 to 50 nM and at most 500 nM.
On the same counts, the results for `CCc1c(N2CCN(C(=O)c3ncnc(C)c3O)[C@H]3CC[C@@H]32)c(=O)n2nc(-c3ccnc(OC)c3)nc2n1CC(=O)NC12CC(C3CC3)(C1)C2` [I-208, N-(3-cyclopropylbicyclo[1.1.1]pentan-1-yl)-2-(5-ethyl-6-((1S,6S)-5-(5-hydroxy-6-methylpyrimidine-4-carbonyl)-2,5-diazabicyclo[4.2.0]octan-2-yl)-2-(2-methoxypyridin-4-yl)-7-oxo-[1,2,4]triazolo[1,5-a]pyrimidin-4(7H)-yl)acetamide] are 5 to 50 nM and at most 500 nM.
The matching figures for `CCc1c(N2CCN(C(=O)c3ncnc(C)c3O)[C@H]3CC[C@@H]32)c(=O)n2nc(-c3ccnc(OC)c3)nc2n1CC(=O)NC12CC(C(F)(F)F)(C1)C2` [I-48, 2-(5-ethyl-6-((1S,6S)-5-(5-hydroxy-6-methylpyrimidine-4-carbonyl)-2,5-diazabicyclo[4.2.0]octan-2-yl)-2-(2-methoxypyridin-4-yl)-7-oxo-[1,2,4]triazolo[1,5-a]pyrimidin-4(7H)-yl)-N-(3-(trifluoromethyl)bicyclo[1.1.1]pentan-1-yl)acetamide]: 5 to 50 nM and at most 500 nM.
As for `CCc1c(N2CCN(C(=O)c3cnn(C)c3)CC2)c(=O)n2nc(C3=CCOCC3)nc2n1CC(=O)NC1Cc2ccc(F)cc2C1` (centres unmarked) [I-248, 2-(2-(3,6-dihydro-2H-pyran-4-yl)-5-ethyl-6-(4-(1-methyl-1H-pyrazole-4-carbonyl)piperazin-1-yl)-7-oxo-[1,2,4]triazolo[1,5-a]pyrimidin-4(7H)-yl)-N-(5-fluoro-2,3-dihydro-1H-inden-2-yl)acetamide], in assay [1], the IC50 was 100 to 500 nM. For the same compound, in assay [2], the EC50 is over 5000 nM.
The matching figures for `CCc1c(N2CCN(C(=O)c3ncccc3C(=O)O)[C@H]3CC[C@@H]32)c(=O)c2nn(-c3ccnc(OC)c3)nc2n1CC(=O)NC12CC(C(C)C)(C1)C2` [I-202, 2-((1S,6S)-5-(5-ethyl-4-(2-((3-isopropylbicyclo[1.1.1]pentan-1-yl)amino)-2-oxoethyl)-2-(2-methoxypyridin-4-yl)-7-oxo-4,7-dihydro-2H-[1,2,3]triazolo[4,5-b]pyridin-6-yl)-2,5-diazabicyclo[4.2.0]octane-2-carbonyl)nicotinic acid]: 5 to 50 nM and over 5000 nM.
The matching figures for `CCc1c(N2CCN(C(=O)c3ncnc(C)c3O)[C@H]3CC[C@@H]32)c(=O)c2nc(N(C)C)cnc2n1CC(=O)NC1CC2(CCC2)C1` [I-229, 2-(2-(dimethylamino)-6-ethyl-7-((1S,6S)-5-(5-hydroxy-6-methylpyrimidine-4-carbonyl)-2,5-diazabicyclo[4.2.0]octan-2-yl)-8-oxopyrido[2,3-b]pyrazin-5(8H)-yl)-N-(spiro[3.3]heptan-2-yl)acetamide]: 5 to 50 nM and 2000 to 5000 nM.
On the same counts, the results for `CCc1c(N2CCN(C(=O)c3ncnc(C)c3O)[C@H]3CC[C@@H]32)c(=O)n2c(=O)n(-c3ccnc(OC)c3)nc2n1CC(=O)NC12CC(C3CC3)(C1)C2` [I-209, N-(3-cyclopropylbicyclo[1.1.1]pentan-1-yl)-2-(7-ethyl-6-((1S,6S)-5-(5-hydroxy-6-methylpyrimidine-4-carbonyl)-2,5-diazabicyclo[4.2.0]octan-2-yl)-2-(2-methoxypyridin-4-yl)-3,5-dioxo-2,3-dihydro-[1,2,4]triazolo[4,3-a]pyrimidin-8(5H)-yl)acetamide] are 5 to 50 nM and at most 500 nM.
